Key:
[1] = test system: human MYD88; assay: Phage display screening of TIR domain-derived peptide library against immobilized MyD88, NGS analysis after four rounds; format: binding; conditions: for NGS count: phages remaining after fourth round
Protocol: (§1) First, vector cloning was performed by synthesizing a DNA sequence for expressing each peptide belonging to the library constructed in Example 1. Vector cloning was performed using p3/p8 phagemids.
(§2) After the fourth round, the remaining phages were obtained by binding to the finally immobilized target proteins, and peptide sequences binding to the target and the relative distribution of each sequence were confirmed by performing NGS analysis on phagemids in the phages.

[2] = test system: human MAL; assay: Phage display screening of TIR domain-derived peptide library against immobilized MAL, NGS analysis after four rounds; format: binding; conditions: for NGS count: phages remaining after fourth round
Protocol: as §1, §2

[3] = P8_MyD88: library displayed on P8 coat protein
[4] = P8_MyD88: relative distribution of the sequence in NGS
[5] = P8_MAL: library displayed on P8 coat protein
[6] = P8_MAL: relative distribution of the sequence in NGS
[7] = P3_MyD88: library displayed on P3 coat protein
[8] = P3_MyD88: relative distribution of the sequence in NGS
[9] = P3_MAL: library displayed on P3 coat protein
[10] = P3_MAL: relative distribution of the sequence in NGS

| Sequence | NGS count [1, 3] | Population [1, 4] | further results |
| --- | --- | --- | --- |
| WDFASNMEQFWDRLYY | 7352 | 2.83% |  |
| SAAYDDFWDRLIRMIE | 5335 | 2.06% |  |
| SLLYDHLRWLGIRAFL |  |  | NGS count [2, 5]: 2576; Population [2, 6]: 0.80% |
| WFYERLVSLILRDTKV |  |  | NGS count [2, 5]: 79000; Population [2, 6]: 24.40% |
| WFMMKFRTVLDHVNDV |  |  | NGS count [2, 5]: 2269 |
| YASYDDNDYYWVTHVLLRHL | 5893 | 2.66% |  |
| RKGDLISDELLIAIEE |  |  | NGS count [1, 7]: 2452; Population [1, 8]: 0.71% |
| AVDKETDKIQTPLKNA |  |  | NGS count [1, 7]: 4790; Population [1, 8]: 1.39% |
| SFFWNKLRYHLPAPQH |  |  | NGS count [2, 9]: 2297; Population [2, 10]: 0.86% |
| WFLFTVRSAIYAMSPA |  |  | NGS count [2, 5]: 3156; Population [2, 6]: 0.97% |
| DPQDLDWFYERLVSLL | 13137 | 5.06% |  |
| DWVWDYLLPNLEGPAG | 19394 | 7.47% |  |
| AFLYTFLINLTHPTNF |  |  | NGS count [2, 5]: 51063; Population [2, 6]: 18.86% |
| RLLKWKEALHQFHSWV |  |  | NGS count [2, 9]: 14924; Population [2, 10]: 5.61% |
| PEKDNGGENAFINNIV |  |  | NGS count [1, 7]: 2498; Population [1, 8]: 0.73% |
| DPQDLDWFYERLVSLF | 54757 | 21.10% |  |
| HLLKEFDKKLITAFKD |  |  | NGS count [1, 7]: 2399; Population [1, 8]: 0.70% |
| YYLDPSHLRKQSGEFG |  |  | NGS count [1, 7]: 2538; Population [1, 8]: 0.74% |
| RGFLSHLRHHLQAKDH |  |  | NGS count [2, 9]: 15065; Population [2, 10]: 5.66% |
| DPQDLEWFYERLFSQM | 4488 | 1.73% |  |
| YLISYIFNELARAGFS |  |  | NGS count [2, 5]: 295; Population [2, 6]: 0.09% |
| VANILGYHWIDWEYFV | 2029 | 0.78% |  |
| NGHESEIIKEIVDTIV |  |  | NGS count [1, 7]: 4233; Population [1, 8]: 1.23% |
| VQWDDPWFWDKLAYAM | 4902 | 1.89% |  |

| Sequence | NGS count [1, 3] | Population [1, 4] | further results |
| --- | --- | --- | --- |
| YLLLSVFQTIFARRTE | 7165 | 2.76% |  |
| HWIDWEYFVGIEDHIK | 3422 | 1.32% |  |
| DSLFWDRLLYSLHVTE | 7586 | 2.92% |  |
| SENYATSPWALDELVL |  |  | NGS count [1, 7]: 5494; Population [1, 8]: 1.89% |
| GLSWGPYEWWMGLYDA | 1965 | 0.76% |  |
| PSEVRKQTGSLAKAFA |  |  | NGS count [1, 7]: 2253; Population [1, 8]: 0.66% |
| DWVWEHFFPMEEKDQT | 1538 | 0.59% |  |
| YLRADDSWFWEKLLYA | 4067 | 1.57% |  |
| SELRVVDDGSVSPLEM |  |  | NGS count [1, 7]: 4872; Population [1, 8]: 1.42% |
| DYASSTWWLRELLQIA | 4111 | 1.58% |  |
| DPQDLQWFYERLVSLI | 5730 | 2.21% |  |
| TSHLHHALRLNKIETF |  |  | NGS count [1, 7]: 2076; Population [1, 8]: 0.60% |
| SPQEQDGFWVRLIEAL | 1842 | 0.71% |  |
| YAASPWWFDELVKIVG | 3433 | 1.32% |  |
| YTALTNSGFHTFRDND |  |  | NGS count [1, 7]: 17600; Population [1, 8]: 5.12% |
| WALDELLKILYANETM | 10515 | 4.05% |  |
| MFGGDTFHDFLDLISM | 1489 | 0.57% |  |
| WALDELLQILHARELF | 14404 | 5.55% |  |
| PQDLEWFYERLVSLIL | 10568 | 4.07% |  |
| FLSYRALEKRFGPIGQ |  |  | NGS count [1, 7]: 3289; Population [1, 8]: 0.96% |
| LEANDSLFWDRLLYSL | 1465 | 0.56% |  |
| IDDDHLTYLVRLLLSR | 3059 | 1.18% |  |
| LGYHWIDWEYFVGIED | 25216 | 9.72% |  |
| YASSSWALDELLRILY | 2327 | 0.90% |  |
